# Measured values: US12060347B2 (BRISTOL-MYERS SQUIBB COMPANY, priority 2016, dated 2024)
# Target: T1, human PAR4 (Homo sapiens, UniProt Q96RI0)
# T1 construct: expressed in transfected cells; host or cells: HEK293 PAR4 Clone 1.2A (BMS Arctic ID 383940)
# T1 sequence (Q96RI0 18-385): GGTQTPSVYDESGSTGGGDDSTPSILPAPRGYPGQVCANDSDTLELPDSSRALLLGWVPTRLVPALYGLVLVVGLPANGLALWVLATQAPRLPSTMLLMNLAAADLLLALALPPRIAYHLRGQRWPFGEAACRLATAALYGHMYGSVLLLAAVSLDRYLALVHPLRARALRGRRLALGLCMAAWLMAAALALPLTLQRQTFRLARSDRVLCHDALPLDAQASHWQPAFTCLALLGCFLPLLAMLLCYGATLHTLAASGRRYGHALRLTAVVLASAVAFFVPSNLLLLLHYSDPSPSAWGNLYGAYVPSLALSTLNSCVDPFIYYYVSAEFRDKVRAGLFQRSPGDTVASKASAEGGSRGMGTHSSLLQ
# Experiment: PAR4 FLIPR assay: antagonism of agonist-peptide-induced calcium mobilization in PAR4-expressing HEK293 cells
# Type: cell-based
# Conditions: H-Ala-Phe(4-F)-[…]NH2-induced intracellular calcium mobilization, 11-point curves
row,Compound,IC50 [nM]
1,"COC(=O)N1CCc2nc(-c3cc(C)cc4nc(OC(F)F)cnc34)sc2C1 [Example 62, methyl 2-(2-(difluoromethoxy)-7-methylquinoxalin-5-yl)-6,7-dihydrothiazolo[5,4-c]pyridine-5(4H)-carboxylate]",100
2,"Cc1cc(-c2nc3ccc(OCCNS(=O)(=O)c4ccccc4)cc3s2)c2ncc(OC(F)F)nc2c1 [Example 63, N-(2-(2-(2-(difluoromethoxy)-7-methylquinoxalin-5-yl)benzo[d]thiazol-6-yloxy)ethyl) benzenesulfonamide]",2.9
3,"Cc1cc(-c2nc3cccc(CO)c3s2)c2ncc(OC(F)F)nc2c1 [Example 64, (2-(2-(difluoromethoxy)-7-methylquinoxalin-5-yl)benzo[d]thiazol-7-yl)methanol]",7.4
4,"COCc1cccc2nc(-c3cc(C)cc4nc(OC(F)F)cnc34)sc12 [Example 65, 2-(2-(difluoromethoxy)-7-methylquinoxalin-5-yl)-7-(methoxymethyl)benzo[d]thiazole]",31
5,"Cc1cc(-c2nc3cccc(CNS(=O)(=O)c4ccccc4)c3s2)c2ncc(OC(F)F)nc2c1 [Example 66, N-((2-(2-(difluoromethoxy)-7-methylquinoxalin-5-yl)benzo[d]thiazol-7-yl)methyl)benzenesulfonamide]",28
6,"Cc1cc(-c2nc3c(F)cc(OCCNS(=O)(=O)c4ccccc4)cc3s2)c2ncc(OC(F)F)nc2c1 [Example 67, N-(2-(2-(2-(difluoromethoxy)-7-methylquinoxalin-5-yl)-4-fluorobenzo[d]thiazol-6-yloxy)ethyl)benzenesulfonamide]",2.9
7,"Cc1ccc2sc(-c3cc(C)cc4nc(OC(F)F)cnc34)nc2c1 [Example 68, 2-(2-(difluoromethoxy)-7-methylquinoxalin-5-yl)-5-methylbenzo[d]thiazole]",120
8,"COC(=O)NCCOc1cccc2nc(-c3cc(C)cc4nc(OC(F)F)cnc34)sc12 [Example 69, Methyl 2-(2-(2-(difluoromethoxy)-7-methylquinoxalin-5-yl)benzo[d]thiazol-7-yloxy)ethylcarbamate]",36
9,"COC(=O)NCCOc1ccc(C)c2nc(-c3cc(C)cc4nc(OC(F)F)cnc34)sc12 [Example 70, Methyl 2-(2-(2-(difluoromethoxy)-7-methylquinoxalin-5-yl)-4-methylbenzo[d]thiazol-7-yloxy)ethylcarbamate]",34
10,"Cc1cc(-c2nc3ccc(OCc4cscn4)cc3s2)c2ncc(OC(F)F)nc2c1 [Example 71, 2-(2-(difluoromethoxy)-7-methylquinoxalin-5-yl)-6-(thiazol-4-ylmethoxy) benzo[d]thiazole]",160
11,"COc1cnc2c(-c3nc4ccc(OCCNS(=O)(=O)c5ccccc5)cc4s3)cc(C)cc2n1 [Example 72, N-(2-(2-(2-methoxy-7-methylquinoxalin-5-yl)benzo[d]thiazol-6-yloxy)ethyl)benzenesulfonamide]",1
12,"Cc1cc(-c2nc3c(C)cc(OCCNS(=O)(=O)c4ccccc4)cc3s2)c2ncc(OC(F)F)nc2c1 [Example 73, N-(2-(2-(2-(difluoromethoxy)-7-methylquinoxalin-5-yl)-4-methylbenzo[d]thiazol-6-yloxy)ethyl)benzenesulfonamide]",2.3
13,"Cc1cc(-c2nc3cccc(OCCO)c3s2)c2ncc(OC(F)F)nc2c1 [Example 74, 2-(2-(2-(difluoromethoxy)-7-methylquinoxalin-5-yl)benzo[d]thiazol-7-yloxy)ethanol]",9.3
14,"COCCOc1cccc2nc(-c3cc(C)cc4nc(OC(F)F)cnc34)sc12 [Example 75, 2-(2-(difluoromethoxy)-7-methylquinoxalin-5-yl)-7-(2-methoxyethoxy)benzo[d]thiazole]",14
15,"Cc1cc(-c2nc3cccc(NC(=O)OCc4ccccc4)c3s2)c2ncc(OC(F)F)nc2c1 [Example 76, benzyl 2-(2-(difluoromethoxy)-7-methylquinoxalin-5-yl)benzo[d]thiazol-7-ylcarbamate]",2.1
16,"COCCOc1ccc2nc(-c3cc(C)cc4nc(OC)cnc34)sc2c1 [Example 77, 2-(2-methoxy-7-methylquinoxalin-5-yl)-6-(2-methoxyethoxy)benzo[d]thiazole]",130
17,"COCCOc1cccc2nc(-c3cc(C)cc4nc(OC)cnc34)sc12 [Example 78, 2-(2-methoxy-7-methylquinoxalin-5-yl)-7-(2-methoxyethoxy)benzo[d]thiazole]",39

row,Compound,IC50 [nM]
1,"COC(=O)Nc1cccc2nc(-c3cc(C)cc4nc(OC(F)F)cnc34)sc12 [Example 80, Methyl 2-(2-(difluoromethoxy)-7-methylquinoxalin-5-yl)benzo[d]thiazol-7-ylcarbamate]",21
2,"Cc1cc(-c2nc3c(C)cc(OCCNS(=O)(=O)c4ccc(F)cc4)cc3s2)c2ncc(OC(F)F)nc2c1 [Example 81, N-(2-(2-(2-(difluoromethoxy)-7-methylquinoxalin-5-yl)-4-methylbenzo[d]thiazol-6-yloxy)ethyl)-4-fluorobenzenesulfonamide]",1.5
3,"Cc1cc(-c2nc3cccc(OCC(=O)Nc4ccccc4)c3s2)c2ncc(OC(F)F)nc2c1 [Example 82, 2-(2-(2-(difluoromethoxy)-7-methylquinoxalin-5-yl)benzo[d]thiazol-7-yloxy)-N-phenylacetamide]",280
4,"Cc1cc(-c2nc3c(C)cc(OCCNS(=O)(=O)c4ccc(C(F)(F)F)cc4)cc3s2)c2ncc(OC(F)F)nc2c1 [Example 83, N-(2-(2-(2-(difluoromethoxy)-7-methylquinoxalin-5-yl)-4-methylbenzo[d]thiazol-6-yloxy)ethyl)-4-(trifluoromethyl)benzenesulfonamide]",11
5,"Cc1cc(-c2nc3c(C)cc(OCCNS(=O)(=O)c4ccc(F)cc4F)cc3s2)c2ncc(OC(F)F)nc2c1 [Example 84, N-(2-(2-(2-(difluoromethoxy)-7-methylquinoxalin-5-yl)-4-methylbenzo[d]thiazol-6-yloxy)ethyl)-2,4-difluorobenzenesulfonamide]",2.5
6,"Cc1cc(-c2nc3c(C)cc(OCCNS(=O)(=O)c4ccc(F)c(F)c4)cc3s2)c2ncc(OC(F)F)nc2c1 [Example 85, N-(2-(2-(2-(difluoromethoxy)-7-methylquinoxalin-5-yl)-4-methylbenzo[d]thiazol-6-yloxy)ethyl)-3,4-difluorobenzenesulfonamide]",8.5
7,"Cc1cc(-c2nc3c(C)cc(OCCNS(=O)(=O)c4ccc(Cl)cc4)cc3s2)c2ncc(OC(F)F)nc2c1 [Example 86, 4-chloro N-(2-(2-(2-(difluoromethoxy)-7-methylquinoxalin-5-yl)-4-methylbenzo[d]thiazol-6-yloxy)ethyl)benzenesulfonamide]",7.2
8,"COc1cnc2c(-c3nc4c(C)cc(OCCNS(=O)(=O)c5ccc(C)cc5)cc4s3)cc(C)cc2n1 [Example 87, N-(2-(2-(2-methoxy-7-methylquinoxalin-5-yl)-4-methylbenzo[d]thiazol-6-yloxy)ethyl)-4-methylbenzenesulfonamide]",2
9,"COc1cnc2c(-c3nc4c(C(F)(F)F)cc(OCCNS(=O)(=O)c5ccc(F)cc5)cc4s3)cc(C)cc2n1 [Example 90, 4-fluoro N-(2-(2-(2-methoxy-7-methylquinoxalin-5-yl)-4-(trifluoromethyl)benzo[d]thiazol-6-yloxy)ethyl)benzenesulfonamide]",84
10,"Cc1cc(-c2nc3c(C)cc(OCCNS(=O)(=O)c4ccc(F)cc4)cc3s2)c2ncc(C3CC3)nc2c1 [Example 91, N-(2-(2-(2-cyclopropyl-7-methylquinoxalin-5-yl)-4-methylbenzo[d]thiazol-6-yloxy)ethyl)-4-fluorobenzenesulfonamide]",62
11,"COCc1cnc2c(-c3nc4c(C)cc(OCCNC(=O)OCc5ccccc5)cc4s3)cc(C)cc2n1 [Example 92, Benzyl 2-(2-(2-(methoxymethyl)-7-methylquinoxalin-5-yl)-4-methylbenzo[d]thiazol-6-yloxy)ethylcarbamate]",2
12,"COCc1cnc2c(-c3nc4c(Cl)cc(OC)cc4s3)cc(C)cc2n1 [Example 93, 4-chloro-6-methoxy-2-(2-(methoxymethyl)-7-methylquinoxalin-5-yl)benzo[d]thiazole]",0.3
13,"COCc1cnc2c(-c3cc4cc(OC)ccc4o3)cc(C)cc2n1 [Example 94, 5-(5-methoxybenzofuran-2-yl)-2-(methoxymethyl)-7-methylquinoxaline]",1.4
14,"COCc1cnc2c(-c3nc4c(C)cc(OCCNS(=O)(=O)c5ccccc5)cc4s3)cc(C)cc2n1 [Example 95, N-(2-((2-(2-(methoxymethyl)-7-methylquinoxalin-5-yl)-4-methylbenzo[d]thiazol-6-yl)oxy)ethyl)benzenesulfonamide]",0.8
15,"COCc1cnc2c(-c3nc4c(C)cc(OCCNS(=O)(=O)c5ccccc5F)cc4s3)cc(C)cc2n1 [Example 96, 2-fluoro N-(2-(2-(2-(methoxymethyl)-7-methylquinoxalin-5-yl)-4-methylbenzo[d]thiazol-6-yloxy)ethyl)benzenesulfonamide]",1.1
16,"COCc1cnc2c(-c3nc4c(C)cc(OCCNS(=O)(=O)c5cccc(F)c5)cc4s3)cc(C)cc2n1 [Example 97, 3-fluoro N-(2-(2-(2-(methoxymethyl)-7-methylquinoxalin-5-yl)-4-methylbenzo[d]thiazol-6-yloxy)ethyl)benzenesulfonamide]",1.7
17,"COCc1cnc2c(-c3nc4c(Cl)cc(OCCNS(C)(=O)=O)cc4s3)cc(C)cc2n1 [Example 98, N-(2-(4-chloro-2-(2-(methoxymethyl)-7-methylquinoxalin-5-yl)benzo[d]thiazol-6-yloxy)ethyl)methanesulfonamide]",0.3
